Laboratory results taken from paper PMC6149898, “GPCR Modulation of Thieno[2,3-b]pyridine Anti-Proliferative Agents” (Molecules : A Journal of Synthetic Chemistry and Natural …, 2017).

Legend:
GALR1 = GALR1 (Homo sapiens, UniProt P47211); assay: gpcrMAX PathHunter beta-arrestin
TBXA2R = TBXA2R (Homo sapiens, UniProt P21731); assay: gpcrMAX PathHunter beta-arrestin
HTR2A = HTR2A (Homo sapiens, UniProt P28223); assay: gpcrMAX PathHunter beta-arrestin
CXCR1 = CXCR1 (Homo sapiens, UniProt P25024); assay: gpcrMAX PathHunter beta-arrestin
Chain of CXCR1 (P25024 whole entry): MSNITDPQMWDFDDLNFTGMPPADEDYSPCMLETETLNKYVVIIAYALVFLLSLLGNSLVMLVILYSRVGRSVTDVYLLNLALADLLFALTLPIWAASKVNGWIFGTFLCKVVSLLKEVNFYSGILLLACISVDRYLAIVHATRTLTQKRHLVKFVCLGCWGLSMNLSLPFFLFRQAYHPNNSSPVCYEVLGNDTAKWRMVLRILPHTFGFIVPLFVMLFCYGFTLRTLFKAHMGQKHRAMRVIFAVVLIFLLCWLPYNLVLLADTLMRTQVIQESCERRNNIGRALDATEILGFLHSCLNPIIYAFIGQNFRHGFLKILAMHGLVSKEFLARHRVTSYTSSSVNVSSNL

MC4R = MC4R (Homo sapiens, UniProt P32245); assay: gpcrMAX PathHunter beta-arrestin
CNS:SF-295 = test system: CNS:SF-295; design: method as in earlier work; conditions: NCI-60 panel; ref [4],[5],[6],[7]; cited from earlier work
GLP2R = GLP2R (Homo sapiens, UniProt O95838); assay: gpcrMAX PathHunter beta-arrestin
HCRTR2 = HCRTR2 (Homo sapiens, UniProt O43614); assay: gpcrMAX PathHunter beta-arrestin
Chain of HCRTR2 (O43614 whole entry): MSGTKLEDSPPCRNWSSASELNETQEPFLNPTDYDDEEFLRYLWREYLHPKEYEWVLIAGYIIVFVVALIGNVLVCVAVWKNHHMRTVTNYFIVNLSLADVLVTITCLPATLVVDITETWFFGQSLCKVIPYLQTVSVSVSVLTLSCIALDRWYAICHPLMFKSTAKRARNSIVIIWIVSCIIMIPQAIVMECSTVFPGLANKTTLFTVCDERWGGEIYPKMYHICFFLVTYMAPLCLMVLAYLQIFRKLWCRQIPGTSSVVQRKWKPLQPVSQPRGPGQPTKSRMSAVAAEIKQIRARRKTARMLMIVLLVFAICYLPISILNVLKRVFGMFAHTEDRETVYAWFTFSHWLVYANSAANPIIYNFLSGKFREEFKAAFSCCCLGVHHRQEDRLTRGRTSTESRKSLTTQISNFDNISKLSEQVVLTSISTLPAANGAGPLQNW

CCR9 = CCR9 (Homo sapiens, UniProt P51686); assay: gpcrMAX PathHunter beta-arrestin
Chain of CCR9 (P51686 whole entry): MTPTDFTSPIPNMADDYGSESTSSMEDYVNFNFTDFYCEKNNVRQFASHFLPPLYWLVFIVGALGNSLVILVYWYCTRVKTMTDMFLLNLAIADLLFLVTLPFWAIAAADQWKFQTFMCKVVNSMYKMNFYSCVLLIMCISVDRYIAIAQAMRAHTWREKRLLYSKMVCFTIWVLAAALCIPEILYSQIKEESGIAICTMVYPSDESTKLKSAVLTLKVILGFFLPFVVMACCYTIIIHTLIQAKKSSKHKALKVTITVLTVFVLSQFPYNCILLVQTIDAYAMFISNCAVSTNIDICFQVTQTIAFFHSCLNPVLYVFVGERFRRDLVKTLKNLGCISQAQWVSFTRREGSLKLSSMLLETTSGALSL
LC:NCI-H460 = test system: LC:NCI-H460; design: method as in earlier work; conditions: NCI-60 panel; ref [4],[5],[6],[7]; cited from earlier work
PTGFR = PTGFR (Homo sapiens, UniProt P43088); assay: gpcrMAX PathHunter beta-arrestin
Chain of PTGFR (P43088 whole entry): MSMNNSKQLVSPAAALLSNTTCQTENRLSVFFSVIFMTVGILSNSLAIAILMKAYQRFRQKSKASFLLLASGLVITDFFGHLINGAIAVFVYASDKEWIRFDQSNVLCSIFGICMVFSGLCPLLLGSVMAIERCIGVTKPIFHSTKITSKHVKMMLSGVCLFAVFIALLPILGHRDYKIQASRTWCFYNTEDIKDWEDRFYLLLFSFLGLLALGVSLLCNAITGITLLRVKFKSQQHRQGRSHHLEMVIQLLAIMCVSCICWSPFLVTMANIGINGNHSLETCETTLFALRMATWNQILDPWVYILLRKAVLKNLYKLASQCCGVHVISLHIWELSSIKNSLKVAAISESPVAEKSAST

HTR5A = HTR5A (Homo sapiens, UniProt P47898); assay: gpcrMAX PathHunter beta-arrestin
Chain of HTR5A (P47898 whole entry): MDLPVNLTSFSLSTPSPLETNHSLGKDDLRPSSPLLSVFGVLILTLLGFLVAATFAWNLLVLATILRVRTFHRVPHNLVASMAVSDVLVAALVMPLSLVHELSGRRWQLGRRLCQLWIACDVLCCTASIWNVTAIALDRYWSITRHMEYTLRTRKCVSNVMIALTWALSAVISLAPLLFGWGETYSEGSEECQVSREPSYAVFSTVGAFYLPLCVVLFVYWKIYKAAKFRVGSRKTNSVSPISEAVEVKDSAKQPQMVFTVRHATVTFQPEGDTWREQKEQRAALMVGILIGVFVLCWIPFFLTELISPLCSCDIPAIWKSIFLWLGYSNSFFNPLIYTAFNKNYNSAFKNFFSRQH

CHRM4 = CHRM4 (Homo sapiens, UniProt P08173); assay: gpcrMAX PathHunter beta-arrestin
Chain of CHRM4 (P08173 whole entry): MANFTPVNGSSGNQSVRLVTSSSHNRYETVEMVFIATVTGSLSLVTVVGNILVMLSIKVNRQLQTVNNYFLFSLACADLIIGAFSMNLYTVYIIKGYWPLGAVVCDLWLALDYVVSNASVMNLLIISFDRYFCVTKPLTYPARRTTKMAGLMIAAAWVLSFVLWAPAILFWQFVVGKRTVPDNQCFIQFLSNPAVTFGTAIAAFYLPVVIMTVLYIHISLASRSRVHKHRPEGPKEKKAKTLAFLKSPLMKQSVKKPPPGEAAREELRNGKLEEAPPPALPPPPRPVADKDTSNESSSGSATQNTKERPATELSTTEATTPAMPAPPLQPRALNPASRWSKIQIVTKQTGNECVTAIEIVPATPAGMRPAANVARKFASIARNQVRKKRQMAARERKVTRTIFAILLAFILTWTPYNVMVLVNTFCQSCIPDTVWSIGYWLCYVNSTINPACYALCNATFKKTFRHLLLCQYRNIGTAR
ME:SK-MEL-5 = test system: ME:SK-MEL-5; design: method as in earlier work; conditions: NCI-60 panel; ref [4],[5],[6],[7]; cited from earlier work
GPR120 = GPR120 (Homo sapiens, UniProt Q5NUL3); assay: gpcrMAX PathHunter beta-arrestin
Chain of GPR120 (Q5NUL3 whole entry): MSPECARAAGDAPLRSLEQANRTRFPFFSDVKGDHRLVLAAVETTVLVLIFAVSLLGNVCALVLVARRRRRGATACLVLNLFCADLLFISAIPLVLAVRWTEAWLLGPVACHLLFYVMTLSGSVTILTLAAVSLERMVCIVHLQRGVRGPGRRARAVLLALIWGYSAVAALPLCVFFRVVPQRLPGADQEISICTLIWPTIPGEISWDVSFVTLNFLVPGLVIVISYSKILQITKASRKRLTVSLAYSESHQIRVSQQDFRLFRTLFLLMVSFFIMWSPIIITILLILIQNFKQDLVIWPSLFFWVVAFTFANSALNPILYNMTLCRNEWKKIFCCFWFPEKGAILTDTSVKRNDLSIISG
ME:M14 = test system: ME:M14; design: method as in earlier work; conditions: NCI-60 panel; ref [4],[5],[6],[7]; cited from earlier work
ADRA2B = ADRA2B (Homo sapiens, UniProt P18089); assay: gpcrMAX PathHunter beta-arrestin
Chain of ADRA2B (P18089 whole entry): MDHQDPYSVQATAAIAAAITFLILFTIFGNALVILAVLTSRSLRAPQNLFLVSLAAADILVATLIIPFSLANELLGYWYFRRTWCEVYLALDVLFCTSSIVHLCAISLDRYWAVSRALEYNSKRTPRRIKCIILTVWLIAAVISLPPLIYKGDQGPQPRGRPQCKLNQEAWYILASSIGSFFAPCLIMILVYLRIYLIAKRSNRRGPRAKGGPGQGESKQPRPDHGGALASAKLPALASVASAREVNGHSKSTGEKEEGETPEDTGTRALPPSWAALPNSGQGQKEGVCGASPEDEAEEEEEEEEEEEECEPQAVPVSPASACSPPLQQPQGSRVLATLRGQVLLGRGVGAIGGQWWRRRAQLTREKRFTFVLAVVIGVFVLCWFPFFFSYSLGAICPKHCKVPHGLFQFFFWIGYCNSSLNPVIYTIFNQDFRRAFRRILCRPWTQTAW

CRHR2 = CRHR2 (Homo sapiens, UniProt Q13324); assay: gpcrMAX PathHunter beta-arrestin
Chain of CRHR2 (Q13324 whole entry): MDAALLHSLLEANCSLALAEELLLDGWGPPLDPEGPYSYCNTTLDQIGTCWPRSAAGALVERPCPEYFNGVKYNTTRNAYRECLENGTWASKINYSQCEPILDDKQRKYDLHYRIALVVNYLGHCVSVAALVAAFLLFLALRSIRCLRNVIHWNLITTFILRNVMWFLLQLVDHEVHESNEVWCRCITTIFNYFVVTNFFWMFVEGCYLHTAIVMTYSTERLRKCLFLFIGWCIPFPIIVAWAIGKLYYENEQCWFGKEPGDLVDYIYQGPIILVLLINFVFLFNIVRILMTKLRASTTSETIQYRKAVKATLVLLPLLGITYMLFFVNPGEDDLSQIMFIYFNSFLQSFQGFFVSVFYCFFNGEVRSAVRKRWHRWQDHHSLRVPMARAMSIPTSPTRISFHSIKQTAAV

P2RY11 = P2RY11 (Homo sapiens, UniProt Q96G91); assay: gpcrMAX PathHunter beta-arrestin
Chain of P2RY11 (Q96G91 whole entry, one chain of several): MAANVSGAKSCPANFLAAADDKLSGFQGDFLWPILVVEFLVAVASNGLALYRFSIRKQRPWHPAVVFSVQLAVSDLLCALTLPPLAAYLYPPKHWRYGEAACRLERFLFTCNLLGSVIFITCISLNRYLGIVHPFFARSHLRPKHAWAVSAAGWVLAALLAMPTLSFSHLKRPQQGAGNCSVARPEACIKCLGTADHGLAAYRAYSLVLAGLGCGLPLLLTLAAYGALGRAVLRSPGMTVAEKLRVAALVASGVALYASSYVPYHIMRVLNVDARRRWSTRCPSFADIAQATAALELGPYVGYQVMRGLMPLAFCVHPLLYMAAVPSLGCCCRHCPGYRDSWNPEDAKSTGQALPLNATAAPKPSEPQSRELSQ
ME:LOX IMVI = test system: ME:LOX IMVI; design: method as in earlier work; conditions: NCI-60 panel; ref [4],[5],[6],[7]; cited from earlier work
ADCYAP1R1 = ADCYAP1R1 (Homo sapiens, UniProt P41586); assay: gpcrMAX PathHunter beta-arrestin
P2RY6 = P2RY6 (Homo sapiens, UniProt Q15077); assay: gpcrMAX PathHunter beta-arrestin
CHRM3 = CHRM3 (Homo sapiens, UniProt P20309); assay: gpcrMAX PathHunter beta-arrestin
HCRTR1 = HCRTR1 (Homo sapiens, UniProt O43613); assay: gpcrMAX PathHunter beta-arrestin
CALCR = CALCR (Homo sapiens, UniProt P30988); assay: gpcrMAX PathHunter beta-arrestin
SSTR5 = SSTR5 (Homo sapiens, UniProt P35346); assay: gpcrMAX PathHunter beta-arrestin
MCHR2 = MCHR2 (Homo sapiens, UniProt Q969V1); assay: gpcrMAX PathHunter beta-arrestin

Chain of GALR1 (P47211 whole entry): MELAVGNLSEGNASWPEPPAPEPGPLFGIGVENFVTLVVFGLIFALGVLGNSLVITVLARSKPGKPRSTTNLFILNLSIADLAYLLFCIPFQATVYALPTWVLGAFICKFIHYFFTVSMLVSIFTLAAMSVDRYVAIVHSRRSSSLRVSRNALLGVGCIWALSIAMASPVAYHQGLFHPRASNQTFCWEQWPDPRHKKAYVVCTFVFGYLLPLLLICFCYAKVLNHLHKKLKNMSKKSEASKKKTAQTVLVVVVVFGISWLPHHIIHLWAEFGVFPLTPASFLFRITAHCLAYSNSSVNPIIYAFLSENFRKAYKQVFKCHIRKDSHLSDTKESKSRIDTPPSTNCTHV
Chain of HTR2A (P28223 whole entry): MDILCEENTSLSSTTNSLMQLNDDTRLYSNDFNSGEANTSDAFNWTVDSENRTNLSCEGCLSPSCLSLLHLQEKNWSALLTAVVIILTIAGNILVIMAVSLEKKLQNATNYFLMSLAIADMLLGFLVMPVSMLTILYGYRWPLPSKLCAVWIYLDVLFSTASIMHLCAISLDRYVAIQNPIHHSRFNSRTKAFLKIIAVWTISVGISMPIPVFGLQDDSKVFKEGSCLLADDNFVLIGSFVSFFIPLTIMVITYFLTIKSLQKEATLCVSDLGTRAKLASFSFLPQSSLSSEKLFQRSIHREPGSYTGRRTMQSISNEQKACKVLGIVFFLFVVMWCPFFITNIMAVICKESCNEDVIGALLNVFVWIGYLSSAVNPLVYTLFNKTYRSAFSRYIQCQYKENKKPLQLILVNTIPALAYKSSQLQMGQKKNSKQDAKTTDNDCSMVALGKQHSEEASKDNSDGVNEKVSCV

Cc1c(Cl)cccc1NC(=O)c1sc2nc3c(cc2c1N)C(=O)CCC3 [Compound 1]
inhibition at 10 µM (GALR1): 12%
inhibition at 10 µM (TBXA2R): -1%
inhibition at 10 µM (HTR2A): -1%
inhibition at 10 µM (CXCR1): 2%
inhibition at 10 µM (MC4R): -42%
GI50 (CNS:SF-295): 36.5 nM
inhibition at 10 µM (GLP2R): 16%
inhibition at 10 µM (HCRTR2): 8%
inhibition at 10 µM (CCR9): 17%
GI50 (LC:NCI-H460): 40.8 nM
inhibition at 10 µM (PTGFR): -13%
inhibition at 10 µM (HTR5A): 2%
inhibition at 10 µM (CHRM4): -10%
GI50 (ME:SK-MEL-5): 237 nM
inhibition at 10 µM (GPR120): 4%
GI50 (ME:M14): 71.3 nM
inhibition at 10 µM (ADRA2B): -9%
inhibition at 10 µM (CRHR2): 8%
inhibition at 10 µM (P2RY11): -6%
GI50 (ME:LOX IMVI): 80.3 nM
inhibition at 10 µM (ADCYAP1R1): 23%
inhibition at 10 µM (P2RY6): -17%
inhibition at 10 µM (CHRM3): 14%
inhibition at 10 µM (HCRTR1): 13%
inhibition at 10 µM (CALCR): -18%
inhibition at 10 µM (SSTR5): -3%
inhibition at 10 µM (MCHR2): -7%
